From patent US12421179B2, “Production method for radiolabeled aryl compound” (OSAKA UNIVERSITY, priority 2017, dated 2025)

Assays:
[1] = test system: C6 glioma cell derived from rat; experiment: Glioma cell uptake experiment; type: cell-based; conditions: for cell uptake reduced by LAT1 inhibitor (BCH) to fraction of uptake: 100 mM BCH addition group; for cell uptake reduced by competitive inhibitor (Phe) to fraction of uptake: 1% Phe addition group; for specificity of cell uptake (via LAT1): concluded from Phe and BCH inhibition; for cell uptake (amount of radioactivity taken up intracellularly): inhibitor-free group, amino acid-free HBSS medium
Experimental: The concentration of the 4-211At-L-phenylalanine (4-^211At-Phe) solution prepared in Example 2 and the 3-^211At-D,L-phenylalanine (3-^211At-Phe) solution prepared in Example 7 were each adjusted to 5 MBq/2 mg·ml. C6 glioma cell derived from rat was seeded on each well of 24-well plate by 5×10^5 cells/well, is and the cells were used in the next day's experiment (cell number: about 1×10^6 cells/well). Before the experiment, the medium was replaced with an amino acid-free HBSS medium (0.5 ml/well). 4-^211At-Phe or 3-^211At-Phe was added to each well of the plate by 10 μl, and the wells were divided into three groups of inhibitor-free group, 1% Phe addition group (competitive inhibitor) and 100 mM BCH addition group (LAT1 inhibitor), and incubated at 37° C. for 30 minutes or 60 minutes. After the incubation, the culture solution was removed, and the cells were washed with PBS, and lysed, and the amount of radioactivity taken up intracellularly was measured. […] Moreover, the cell uptake after 60 minutes was reduced, compared to that after 30 minutes. The competitive inhibitor (Phe) reduced the cell uptake of 4-^211At-Phe and 3-^211At-Phe to ½ to ⅓, and LAT1 inhibitor (BCH) reduced the cell uptake of 4-^211At-Phe and 3-^211At-Phe to ¼ to ⅛. […] Especially, the cell uptake of 3-^211At-Phe was more than that of 4-^211At-Phe, and therefore, 3-211At-Phe can be further expected for the above-mentioned application.

C6 glioma tumor = experiment: SPECT imaging of C6 glioma-transplanted rat; type: in vivo; conditions: 1 MBq, tail vein; 30 minutes and 3 hours after administration; tumor in both flanks
Experimental: The 4-^211At-L-phenylalanine (4-^211At-Phe) (1 MBq) prepared in Example 2 was administered to the tail vein of the glioma-transplanted rat, and the rat was imaged by SPECT camera (E-cam, Siemens). In both images, the is accumulation of 4-^211At-Phe in the tumor (both flanks, indicated by arrows in the figure) was observed. Therefore, 4-^211At-Phe can be expected to be applied to RI internal therapy or diagnosis for cancer.

SMILES	cell uptake reduced by LAT1 inhibitor (BCH) to fraction of uptake [1]	cell uptake reduced by competitive inhibitor (Phe) to fraction of uptake [1]	cell uptake after 60 minutes compared to that after 30 minutes ([1]; C6 glioma cells, 37° C.)	cell uptake compared with 4-^211At-Phe ([1]; C6 glioma cells, 37° C., 30 or 60 minutes)	specificity of cell uptake (via LAT1) [1]	cell uptake (amount of radioactivity taken up intracellularly) ([1]; 37° C., 30 or 60 minutes)	uptake by cancer cells (general statement) ([1]; summary statement in the description)	accumulation in the tumor (SPECT images) (C6 glioma tumor)
NC(Cc1cccc([211At])c1)C(=O)O (racemic) [3-^211At-Phe, 3-^211At-D,L-phenylalanine]	¼ to ⅛	½ to ⅓	reduced	slightly more than that of 4-^211At-Phe	specifically taken up by the cells via LAT1	taken up by the cell	taken up in large amounts by cancer cells	
N[C@@H](Cc1ccc([211At])cc1)C(=O)O [4-^211At-Phe, 4-^211At-L-phenylalanine]	¼ to ⅛	½ to ⅓	reduced		specifically taken up by the cells via LAT1	taken up by the cell		observed
